In assay [1] the test system is freshly plated P2 mouse Schwann cells. Briefly: Cell death in freshly plated P2 mouse Schwann cells (propidium iodide, DAPI, SOX10). Type of assay: cell-based. The settings on record: 250 μM 3-AP for 72 hours vs water. Here is the method:
(§1) Freshly plated mouse Schwann cells were obtained from P2 sciatic and brachial nerves. Nerves were digested with trypsin and collagenase, centrifuged and plated on laminin/Poly-L-lysine coated glass coverslips in defined medium as previously described (Arthur-Farraj et al., 2011).
Sciatic and optic nerves were dissected from Wt and Sarm1 KO mice and directly embedded in O.C.T. compound, without fixing, and stored at −80° C. until ready for cryosectioning. Cryosections at 5 μm thick were collected onto SuperFrost plus slides. These slides were post-fixed in 4% paraformaldehyde (PFA) at room temperature for 10 mins followed by three washes of 5 mins each with 1×PBS. The slides were then immersed in 100% methanol at −20° C. for 10 mins, followed by three washes of 5 mins each with 1×PBS. The slides were then blocked in 5% horse serum (HS)/0.2% Triton x-100/PBS for 30 mins at room temperature. Primary antibodies were diluted in blocking solution and slides were incubated overnight at 4° C. The following day, the slides were washed once for 5 mins with 1×PBS, twice for 5 mins with 0.1% tween/PBS and finally once again for 5 mins with 1×PBS before adding secondary antibodies. The corresponding secondary antibodies were diluted at 1:500 along with DAPI at 1:2000 for 2 hrs at room temperature and kept in the dark. […]

The next assay relates to Schwann cells. Put plainly: Intracellular NAD+ in Schwann cells (NAD-glo assay). Type of assay: cell-based, mouse. The settings on record: 250 μM 3AP, 72 hours, compared to DMSO control, listed as 3AP. How it is done:
as §1
[…] Protein was extracted using Pierce™ IP Lysis Buffer supplemented with cOmplete™ Mini EDTA-free Protease Inhibitor Cocktail, and a BCA assay carried out to determine protein concentration. All samples were diluted to 0.5 μg/μL. The NAD-glo assay was performed according to manufacturer's instruction of the NAD^+/NADH-Glo™ assay by Promega (G9071). In short, 25 μL of sample were incubated with 12.5 μL 0.4M HCl at 60° C. for 15 min, before 12.5 μL 0.5M Tris base were added. 10 μL NAD^+ standards or sample were then mixed with 10 μL NAD-glo master mix (1 ml luciferin detection reagent, 5 μl reductase, 5 μl reductase substrate, 5 μl NAD^+ cycling enzyme, 25 μl NAD^+ cycling substrate) and incubated at RT for 40 min. Luminescence was read using a GloMax® Explorer microplate reader and NAD^+ concentrations determined relative to a NAD^+ standard curve.

Assay [2] concerns expanded mouse Schwann cells. Briefly: Cell death in expanded mouse Schwann cells passaged three times (phase contrast, propidium iodide). Type of assay: cell-based. The settings on record: 250 μM 3-AP for 72 hours vs water; Schwann cells passaged three times in proliferative medium. How it is done:
Mouse SCs were passaged on PLL/laminin coated dishes in the presence of low serum (0.5% horse serum), 10 ng/ml Bneuregulin1 (BNRG1), and a low concentration cyclic adenosine monophosphate (CAMP) elevating signal, such as 2 μM forskolin or 100 μM dibutryl cAMP (Arthur-Farraj et al., 2011). Full protocol is described in (Mutschler et al., 2023).

Another assay concerns neuronal cultures. The settings on record: Loreto et al., 2021, Wu et al.; cited from earlier work.
For assay [3], the target named is T1, SARM1 (Homo sapiens, UniProt Q6SZW1).
T1 sequence (Q6SZW1 28-724): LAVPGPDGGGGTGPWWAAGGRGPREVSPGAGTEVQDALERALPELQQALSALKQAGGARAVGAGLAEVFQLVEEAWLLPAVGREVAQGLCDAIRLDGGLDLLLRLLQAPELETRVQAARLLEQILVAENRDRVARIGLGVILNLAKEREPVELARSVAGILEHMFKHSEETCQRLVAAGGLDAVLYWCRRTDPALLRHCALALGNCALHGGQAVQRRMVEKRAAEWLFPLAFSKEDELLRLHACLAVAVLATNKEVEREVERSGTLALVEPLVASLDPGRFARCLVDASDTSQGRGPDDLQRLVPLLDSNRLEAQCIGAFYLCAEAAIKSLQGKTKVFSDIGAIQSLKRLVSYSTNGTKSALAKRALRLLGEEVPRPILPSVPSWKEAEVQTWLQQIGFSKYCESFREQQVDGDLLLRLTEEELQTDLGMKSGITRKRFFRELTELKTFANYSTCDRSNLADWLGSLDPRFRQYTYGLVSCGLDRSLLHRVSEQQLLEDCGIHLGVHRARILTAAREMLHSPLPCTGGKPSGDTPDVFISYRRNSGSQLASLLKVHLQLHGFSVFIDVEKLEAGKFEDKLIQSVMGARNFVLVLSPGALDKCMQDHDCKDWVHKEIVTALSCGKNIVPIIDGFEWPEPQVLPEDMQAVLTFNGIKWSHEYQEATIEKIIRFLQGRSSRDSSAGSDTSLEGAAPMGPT
As to conditions: cited from earlier work; for SARM1 activation in in vitro assays: Zhao et al., 2019; for SARM1 activation on binding in the allosteric site (ARM domain): Figley et al.

Assay [4] concerns the target T1, SARM1. The settings on record: Zhao et al., 2019; cited from earlier work.

“Also recorded” adds a separate entry of the source.

Take `CC(=O)c1cccnc1` [3-AP, 3-acetylpyridine]: the “cell death judged by propidium iodide (P.I) and DAPI nuclear staining and SOX10 immunocytochemistry” value in assay [1] is recorded as “completely insensitive; also recorded: no cell death”. The “Intracellular NAD+ levels” value in the assay with Schwann cells is “do not change”. The “cell death by propidium iodide (P.I.) staining and phase contrast” value in assay [2] is “susceptible to cellular dysfunction and death; also recorded: substantial increase in P.I. staining”. In addition, the “effect of high dose on neuronal cultures” value with neuronal cultures was “axonal degeneration and cell death within hours”. In addition, the “SARM1 activity on interaction with active site (TIR domain) for base exchange reaction” value at SARM1 [3] (Loreto et al., 2021, Angeletti et al., 2022, Wu et al.) is “increase in SARM1 activity”. Turning to `NC(=O)c1ccc[n+]([C@@H]2O[C@H](COP(=O)(O)O)C(O)C2F)c1` (some centres unmarked) [CZ-17, ara-F-NMN], the “SARM1 activation in in vitro assays” value at SARM1 [3] is reported as “can activate SARM1”. On to `NC(=O)c1ccc[n+]([C@@H]2O[C@H](COP(=O)(O)O)C(O)C2O)c1` (some centres unmarked) [NMN, Nicotinamide Mononucleotide], for which the “SARM1 activation on binding in the allosteric site (ARM domain)” value at SARM1 [3] (Loreto et al., 2021) is given as “potently activates it”.

Regarding `NC(=O)c1ccc[n+]([C@@H]2O[C@H](COP(O)(O)=S)C(O)C2O)c1` (some centres unmarked) [S-NMN], at SARM1 [3], the “SARM1 activation in in vitro assays” value is on record as “can activate SARM1”. In the case of `O=C(NCc1ccc[n+](C2OC(COP(=O)([O-])O)C(O)C2O)c1)Nc1ccc([N+](=O)[O-])cc1` (centres unmarked) [VMN, Vacor Mononucleotide], the “SARM1 activation on binding in the allosteric site (ARM domain)” value at SARM1 [3] (Loreto et al., 2021) is on record as “potently activates SARM1”. Consider sulfo-ara-F-NMN [CZ-48], for which, at SARM1 [3], the “SARM1 activation in in vitro assays” value is “can activate SARM1”. For the same compound, the “SARM1 activation in cells” value on SARM1 [4] is “can activate SARM1”.

These data come from patent US20260166017A1, “SARM1 INHIBITORS FOR USE IN THERAPY AND COSMETICS” (priority 2022, published 2026).
